Series [1] deals with various cytokines (e.g., CCL4, IL-18, IL-23, and IL-10). Put plainly: In vivo serum cytokine expression in Cynomolgus Macaques (Luminex). The arrangement: species or system Cynomolgus Macaque. As to conditions: monkeys; human CSF1R-Fc-CD40L; relative to vehicle; FIG. 10. The method, then: (§1) The ability of the CSF1R-Fc-CD40L chimeric protein to induce in vivo cytokine expression in mice and in a non-human primate (Cynomolgus Macaque) was determined.
(§2) Mice were administered a vehicle or the murine CSF1R-Fc-CD40L chimeric protein and Cynomolgus Macaques were administered a vehicle or the human CSF1R-Fc-CD40L chimeric protein and the relative amount of various cytokines (e.g., CCL4, IL-18, IL-23, and IL-10) were detected and quantified.

For series [2] the test system is unchanged. The series can be described thus: In vivo serum cytokine expression in mice (Luminex). The conditions noted are these: murine CSF1R-Fc-CD40L, relative to vehicle, FIG. 10. The method, then:
as §1, §2

Series [3] can be described thus: In vivo toxicity in mice. The method, then:
as §2

The test system of series [4] is CT26 (murine colon carcinoma) tumor cells. Put plainly: In vivo anti-tumor activity of combinations of a STING agonist and chimeric proteins (CT26 tumor model). The conditions noted are these: for effectiveness of combination by order of administration: chimeric protein provided after DMXAA relative to DMXAA following the chimeric protein. The arrangement: species or system BALB/C mice. The protocol:
The in vivo ability of specific combinations of a stimulator of interferon genes (STING) agonist and chimeric proteins to target and reduce tumor volume was determined.
BALB/C mice were inoculated with 500,000 CT26 (murine colon carcinoma) tumor cells. Eight days after inoculation, there was no significant difference between starting tumor volumes among the mice, i.e., volumes were approximately 100 mm^3. Specific combinations were included: DMXAA; anti-PD-1 (RMP1-14); anti-OX40 (OX86); PD1-Fc-OX40L; CSF1R-Fc-CD40L (FIG. 8A); DMXAA then anti-PD1; DMXAA then anti-OX40; DMXAA then PD1-Fc-OX40L; DMXAA then CSF1R-Fc-CD40L (FIG. 8B); PD1-Fc-OX40L then […]; and CSF1R-Fc-CD40L then DMXAA (FIG. 8C). Tumor sizes were assayed every other day until the 27th day after inoculation. Mice that rejected the tumor were re-challenged with a secondary tumor (300,000 CT26 tumor cells) on the opposing flank, and primary/secondary tumors continued to be measured.

The test system is the same in series [5]. The series can be described thus: In vivo anti-tumor activity of combinations of antibodies directed to immune checkpoint molecules and chimeric proteins (CT26 tumor model). The conditions noted are these: for tumor volume: relative to vehicle, until the 35th day, antibodies three doses of 100 μg, chimeric protein three doses of 300 μg. Also on record: species or system BALB/C mice. The method, then: The in vivo ability of specific combinations of antibodies directed to immune checkpoint molecules and chimeric proteins to target and reduce tumor volume was determined.
BALB/C mice were inoculated with 500,000 CT26 (murine colon carcinoma) tumor cells. Eight days after inoculation, there was no significant difference between starting tumor volumes among the mice, i.e., volumes were approximately 100 mm^3. Specific combinations were included: anti-CTLA-4 (9D9); anti-PD-1 (RMP1-14); anti-OX40 (OX86); PD1-Fc-OX40L; CSF1R-Fc-CD40L (FIG. 3B); anti-CTLA-4 then anti-PD1; anti-CTLA-4 then anti-OX40; anti-CTLA-4 then PD1-Fc-OX40L; anti-CTLA-4 then CSF1R-Fc-CD40L (FIG. 3C); PD1-Fc-OX40L then anti-CTLA-4; and CSF1R-Fc-CD40L then anti-CTLA-4 (FIG. 3D); anti-CTLA-4 then CSF1R-Fc-CD40L; CSF1R-Fc-CD40L then anti-CTLA-4; and CSF1R-Fc-CD40L with anti-CTLA-4 (FIG. 3E and FIG. 3F); and anti-PD-1 then CSF1R-Fc-CD40L; CSF1R-Fc-CD40L then anti-PD-1; and CSF1R-Fc-CD40L with anti-PD-1 (FIG. 4A and FIG. 4B).
In the experiments shown in FIG. 3A to FIG. 3D, tumor sizes were assayed every other day until the 27th day after inoculation. Mice that rejected the tumor were re-challenged with a secondary tumor (300,000 CT26 tumor cells) on the opposing flank, and primary/secondary tumors continued to be measured. In the experiments shown in FIG. 3E to FIG. 4B, tumor sizes were assayed every other day until the 35th day after inoculation. Mice that rejected the tumor were re-challenged with a secondary tumor (300,000 CT26 tumor cells) on the opposing flank, and primary/secondary tumors continued to be measured. Antibodies were given as three doses of 100 μg, the chimeric protein was given as three doses of 300 μg, with antibodies administered before, after, and simultaneously with the chimeric protein (days 7, 9, & 11; or days 12, 14, & 16).

Series [6] can be described thus: In vivo toxicity in monkeys. The method, then:
as §2

As for “CSF1R-Fc-CD40L: chimeric protein: extracellular region of CSF1R, linker comprising a hinge-CH2-CH3 Fc region, extracellular region of CD40L; murine and human versions used”, the serum cytokine levels result in series [1] and in series [2] was “greatly enhanced” throughout. Also, the in vivo toxicity entry in series [3] and in series [6] was “no in vivo toxicity was observed” in each case. Also, in series [4], the “effectiveness of combination by order of administration” value is on record as “more effective”. The “anti-tumor effects compared among treatment groups” value in series [5] (FIG. 3E (anti-CTLA-4 series)) and in series [5] (FIG. 4A (anti-PD-1 series)) was “Roughly comparable amounts of anti-tumor effects” each time. Also, the survivors result in series [5] (by 30 days after inoculation) was “no survivors”. Besides, the “improvement in tumor volume reduction by order of administration” value in series [5] (chimeric protein administered after the anti-CTLA-4 antibody, FIG. 3C, 3D) was “most significant improvement”. Also, the tumor volume entry in series [5] (FIG. 3E (anti-CTLA-4 series)) and in series [5] (FIG. 4A (anti-PD-1 series)) was “effective in reducing tumor volume” throughout.
For `Cc1ccc2c(=O)c3cccc(CC(=O)O)c3oc2c1C` [DMXAA, 5,6-dimethylxanthenone-4-acetic acid, reference compound], in series [4] (FIG. 8A), the “anti-tumor activity as a monotherapy” value was “effective anti-tumor agent”.

B1: PD1-Fc-OX40L: chimeric protein: extracellular domain of PD-1, linker comprising a hinge-CH2-CH3 Fc domain, extracellular domain of OX40L (protein)
chain: LDSPDRPWNPPTFSPALLVVTEGDNATFTCSFSNTSESFVLNWYRMSPSNQTDKLAAFPEDRSQPGQDCRFRVTQLPNGRDFHMSVVRARRNDSGTYLCGAISLAPKAQIKESLRAELRVTERRAEVPTAHPSPSPRPAGQFQSKYGPPCPPCPAPEFLGGPSVFLFPPKPKDQLMISRTPEVTCVVVDVSQEDPEVQFNWYVDGVEVHNAKTKPREEQFNSTYRVVSVLTVLHQDWLSGKEYKCKVSSKGLPSSIEKTISNATGQPREPQVYTLPPSQEEMTKNQVSLTCLVKGFYPSDIAVEWESNGQPENNYKTTPPVLDSDGSFFLYSRLTVDKSRWQEGNVFSCSVLHEALHNHYTQKSLSLSLGKIEGRMDQVSHRYPRIQSIKVQFTEYKKEKGFILTSQKEDEIMKVQNNSVIINCDGFYLISLKGYFSQEVNISLHYQKDEEPLFQLKKVRSVNSLMVASLTYKDKVYLNVTTDNTSLDDFHVNGGELILIHQNPGEFCVL
Consider B1, for which the “effectiveness of combination by order of administration” value in series [4] is “more effective”.

These data come from patent US20210324041A1, “COMBINATION THERAPIES” (Shattuck Labs, Inc., priority 2018, published 2021).
